In PMC5655689, “Therapeutic potential of the phosphino Cu(I) complex (HydroCuP) in the treatment of solid tumors” (Scientific Reports, 2017):

How the values were obtained:
[1] = test system: DRG explants from 15 day-embryonic Sprague-Dawley rats; test: Neurotoxicity: neurite elongation in DRG explants; conditions: 48 h, DRG explants with NGF; OXP 5, 7.5, 10 μM; HydroCuP 5, 10, 20 μM
Method: To investigate the potential neurotoxic effect of HydroCuP, we employed a well-established in vitro model based on organotypic cultures of DRG from 15-day-old rat embryos. Neurite elongation under NGF influence was evaluated in DRG explants. […] For comparison purposes, the effect induced by the reference drugs OXP and CDDP was also tested.
OXP and HydroCuP toxicity at 48 h in DRG explants from 15 day-embryonic Sprague-Dawley rats. Representative images of neurite length in maturing DRG explants with different concentrations of OXP and HydroCuP (A). Bar: 500 µm.
DRG from E15 Sprague-Dawley rats (Envigo, San Pietro al Natisone, Italy) were aseptically removed and cultured onto a single layer of rat tail collagen surfaces in 35-mm dishes as previously described[36].
The DRG were incubated in AN2 medium [MEM added with 1.4 mM L-glutamine (Euroclone, Pero, Italy), 10% calf bovine serum (Hyclone, Thermo Scientific, Logan, UT) 50 µg/ml ascorbic acid, 0.6% glucose (Sigma-Aldrich) in the presence of 5 ng/ml nerve growth factor (NGF; Life Technologies, Monza, Italy) in a 5% CO2 humidified incubator at 37 °C.
To evaluate the neurotoxicity of HydroCuP and OXP, the DRG explants were treated for 2 h with NGF and subsequently exposed to each drug at different concentrations for 48 h. OXP was tested at 5, 7.5 and 10 μM while 5, 10 and 20 μM of HydroCuP was used. DRG treated with AN2 medium supplemented with 5 ng/ml NGF alone were used as controls. Phase-contrast micrographs were taken, and the length of the longest neurite in each DRG was measured by Image J (NIH, Bethesda, MD), using a standard calibration grating photographed at the same magnification. A compound is considered neurotoxic when the mean neurite elongation is reduced by 50% or more after drug exposure vs control.

[2] = set-up: method as in PMID 21388518, PMID 20486256; conditions: pH 7.4; cited from earlier work
[3] = test system: LoVo colorectal oxaliplatin-sensitive xenograft; conditions: mouse, in vivo, ip, 30 mg/kg
Method: To this aim, we developed the OXP-sensitive and OXP-resistant LoVo xenografts in BALB/c nu/nu mice. […] OXP-sensitive or OXP-resistant LoVo cells (1 × 10^7) were injected in the flank of mice. Once tumor was established (tumor volumes of about 0.4 cm^3, around 14 days after tumor inoculation), mice were randomly divided into six groups (6 animals per group, 8 controls). The HydroCuP-treated groups (6 mice each group) received daily 30 mg/kg by i.p. injection and the OXP-treated group was given 2 mg/kg by i.p. injection. At day 30, animals were sacrificed, and the inhibition of tumor growth was determined (Fig. 4, panel A). Measurements of body weights were recorded from day 14 every 2 days until the experimental endpoint (Fig. 4, panel B).
(A) LoVo and LoVo-OXP tumor xenografts in 6-week-old BALB/c nu/nu mice by injecting 1 × 10^7 tumor cells subcutaneously on the left dorsal flank. After 24 h from tumor implantation, mice randomly divided into six groups (6 animals per group). Chemotherapy delayed until day 14 (tumor volumes of about 0.4 cm^3). From day 14, HydroCuP dosed daily at 30 mg/kg i.p., OXP dosed daily at 2 mg/kg i.p. At day 30, animals sacrificed, and the inhibition of tumor growth determined by comparing the volume of the control group and the treatment group expressed as percentage referred to the control animals. Error bars indicate the S.D. *p < 0.05, **p < 0.01, with respect to control. […] Body weight was measured every two days and was taken as a parameter of systemic toxicity. The error bars indicate the S.D. **P < 0.01; *P < 0.05.
LoVo and LoVo-OXP tumor xenografts were established in 6-week-old BALB/c nu/nu mice by injecting 1 × 10^7 tumor cells subcutaneously (100 μL in serum free medium) on the left dorsal flank. After 24 h from tumor implantation, mice were randomly divided into six groups (6 animals per group, 8 controls). Chemotherapy was delayed until the tumor was about 0.4 cm^3 (day 14). From day 14, HydroCuP was dosed daily at 30 mg/kg i.p. whereas OXP was dosed daily at 2 mg/kg i.p. Measurements of body weights and tumor volumes were recorded from day 14 every 2 days until the experimental endpoint. The long axis (L) and the short axis (S) were measured with callipers, and the tumor volume (V) was calculated using the following equation: V = SxSxL/2. At day 30, animals were sacrificed, and the inhibition of tumor growth was determined by comparing the volume of the control group and the treatment group expressed as percentage referred to the control animals.

26S proteasome = test system: 26S proteasome; set-up: method as in PMID 21388518; conditions: cited from earlier work
[4] = test system: p-PERK and p-IRE1 (UPR pathway); test: IHC analysis of p-PERK and p-IRE1 in LLC tumor samples; type: in vivo, mouse; conditions: later-stage regimen
Text: In order to investigate the in vivo activation of the UPR induced by HydroCuP, the levels of the phospho-PERK (p-PERK) and phospho-IRE1 (p-IRE1) were detected in tumor samples derived from treated LCC-bearing mice (following later-stage regimen). […] In control samples, p-PERK staining was found moderate in cytoplasm (in about 40% cell population) and intense in perinuclear-ER (about 5% of cell population). […] With regard to the […], p-IRE1, control tumors were weakly positive in cytoplasm (in about 15% cell population).
Figure 6 IHC analysis of p-PERK and p-IRE1 expression in LLC tumor samples. (A) Pictures show representative patterns of p-PERK and p-IRE1 expression by IHC in control LLC tumor samples (a and c) and in HydroCuP-treated tumor samples (b and d); magnification: ×10. (B) p-PERK (a) and p-IRE1 (b) values, evaluated in LLC tumor sections. The quantification of IHC images was performed by using Image J software. Columns indicate quantitative analysis in n = 3 different tumors per group; *P < 0.05.
To evaluate p-PERK and p-IRE1 expression, five-micron-thick formalin-fixed, paraffin-embedded (FFPE) tumor samples of LLC models (3 tumors/group, 3 sections/tumor and 3 images/sections) were stained by IHC using anti-human p-PERK (Thr981, Santa Cruz) or p-IRE1 (Ser724, Abcam) primary antibodies according to the manufacturer’s instructions. IHC was performed using a Leica Bond III Autostainer (Leica). Antigen retrieval was performed in citrate buffer for 15 min. Sections were counter-stained with Mayer’s haematoxylin. IHC results were evaluated by one experienced pathologist with no prior knowledge of experimental data. The quantification of IHC images was performed by using Image J software.

[5] = Tissue distribution of copper in LLC-bearing mice (GF-AAS); type: in vivo, mouse; conditions: single i.p. 50 mg/kg on day 10, 24 h
Method: To better understand the pharmacology and toxicology of the novel copper(I) complex, tissue samples, collected from LCC-bearing C57BL mice were analysed. […] On day 10 after tumor implantation, mice were treated with a single i.p. injection of 50 mg/kg of HydroCuP. After 24 hours, animals were sacrificed and copper content was quantified by graphite furnace atomic absorption spectroscopy (GF-AAS) analysis in several organs and normalized to control mice tissues. The solid tumor mass presented the highest copper concentration (at least 1.4 times higher than that detected in spleen), followed by spleen, kidney, liver and stomach.
Figure 3 Tissue distribution in LLC bearing C57BL mice. C57BL mice were inoculated i.m. on the right flank with LLC cells (2 × 10^6). After 10 days, HydroCuP was administered i.p. at a dose of 50 mg/kg. The mice were sacrificed after 24 hours and tumor, brain, spleen, kidney, intestine, liver and stomach were excised. Tissues were washed in ice-cold saline and weighed after removing excess fluid. All samples were mineralized in HNO3 and Cu content in each sample was measured by GF-AAS.
C57BL mice were inoculated […]. on the right flank with LLC cells (2 × 10^6). […] All samples were mineralized in HNO3 and Cu content in each sample was measured by GF-AAS (Graphite Furnace Atomic Absorption Spectroscopy).

[6] = Nephrotoxicity: urinary biomarkers (uTP, NAG) in Sprague Dawley rats; type: in vivo, rat; conditions: single i.p. HydroCuP 50 mg/kg vs CDDP 1.5 mg/kg
Method: Figure 5 Neurotoxicity studies. […] Bar: 500 µm. […] Nephrotoxicity studies. […] Error bars indicate the S.D. The potential nephrotoxic effect of HydroCuP was evaluated by measuring some specific biomarkers in urines obtained from 8-week-old male Sprague Dawley rats treated with a single i.p. injection of HydroCuP and CDDP. Urines of the treated animals were collected after 24, 72 and 120 h, and urinary total protein (uTP) and N-acetyl-β-D-glucosaminidase (NAG) were evaluated as signs of nephrotoxicity. […] On the contrary, treatment with HydroCuP determined a 24 h excretion of uTP roughly 12 times lower than that recorded with CDDP (Fig. 5, panel D). Following 120 h, the levels of uTP excreted by HydroCuP were 11 times lower compared with the reference metallodrug. Eight-week-old male Sprague Dawley rats were randomly allocated to five groups (five animals per group) and treated with a single i.p. injection of HydroCuP (50 mg/kg) or the vehicle solution (0.2 mL saline solution, control). Cisplatin (1.5 mg/kg,) was also used under the same experimental conditions for comparison purposes. […] Later, urines were centrifuged (150 g for 10 minutes at room temperature) to discard debris and aliquoted to measure creatinine, uTP and NAG. Urine creatinine assays were performed using creatinine assay kit from Sigma Chemical Co. (St. Louis, MO). uTPs were measured by means of BioRad Total Protein Test (Hercules, CA). Urinary NAG was measured spectrophotometrically with the NAG kit (Roche diagnostics, Basel, Switzerland) according to the manufacturer’s protocols. uTP and NAG are expressed as grams per millimoles of creatinine (g mmol^−1 creatinine).

F[P-](F)(F)(F)(F)F.OC[P+](CO)(CO)[Cu-3]([P+](CO)(CO)CO)([P+](CO)(CO)CO)[P+](CO)(CO)CO [HydroCuP, [Cu(thp)4][PF6]]
Neurotoxic effect (neurite elongation) [1]: no neurotoxic effect even at the highest concentrations | Water solubility [2]: > 2.0 mg/mL | Body weight and health vs control group [3]: No significant difference in body weight | Effect on CT-L, T-L and C-L catalytic activities of 26S proteasome (26S proteasome): inhibit chymotrypsin-like (CT-L), trypsin-like (T-L) and caspase-like (C-L) catalytic activities of 26S proteasome | Cytoplasmic p-PERK positivity vs control [4]: no difference in cytoplasmic p-PERK positivity | Perinuclear-ER p-PERK staining ([4]; control about 5% of cell population): about 30% | Cytoplasmic p-IRE1 positivity (cell population) ([4]; control about 15% cell population): about 35% | Copper content in brain with respect to control animals [5]: no enhance in copper content was detectable in brain | Copper concentration in tumor mass, times higher than in spleen ([5]; normalized to control mice tissues): at least 1.4 | NAG activity, times lower than CDDP ([6]; urine 24, 72, 120 h): up to 12 | 24 h excretion of uTP, times lower than CDDP ([6]; urine 24 h): roughly 12 | uTP excreted, times lower than CDDP ([6]; urine 120 h): 11
